These results are taken from PubChem BioAssay AID248 (DTP/NCI, 2004).

The assay has as its system L1210 leukemia ip in BDF1 mice, survival T/C. The assay can be described thus: NCI In Vivo Anticancer Drug Screen. Data for tumor model L1210 Leukemia (intraperitoneal) in B6D2F1 (BDF1) mice. The settings on record: endpoint: mean survival time, higher = longer survival. The method, boiled down:
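Value reflects the ratio of survival in compound-treated mice to survival in vehicle-treated controls, with both groups carrying the same transplanted tumor.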

The mark [1] stands for this setting: dose: 100.0 mg/kg/injection, schedule: Q01DX009 (ip), vehicle: saline with Tween-80.
Setting [2] is: dose: 200.0 mg/kg/injection, schedule: Q01DX009 (ip), vehicle: saline with Tween-80.
Where [3] appears, read: dose: 400.0 mg/kg/injection, schedule: Q01DX009 (ip), vehicle: saline with Tween-80.
The mark [4] stands for this setting: dose: 100.0 mg/kg/injection, schedule: Q04DX003 (ip), vehicle: saline with Tween-80.
Setting [5] is: dose: 200.0 mg/kg/injection, schedule: Q04DX003 (ip), vehicle: saline with Tween-80.
[6] abbreviates: dose: 100.0 mg/kg/injection, schedule: Q01DX001 (ip), vehicle: Klucel (hydroxypropylcellulose) (HPC).
[7] abbreviates: dose: 100.0 mg/kg/injection, schedule: Q01DX001 (ip), vehicle: saline.
Where [8] appears, read: dose: 100.0 mg/kg/injection, schedule: Q04DX003 (ip), vehicle: saline.
Where [9] appears, read: dose: 200.0 mg/kg/injection, schedule: Q01DX001 (ip), vehicle: saline.
Setting [10] is: dose: 200.0 mg/kg/injection, schedule: Q04DX003 (ip), vehicle: saline.
The mark [11] stands for this setting: dose: 400.0 mg/kg/injection, schedule: Q01DX001 (ip), vehicle: saline.
Setting [12] is: dose: 400.0 mg/kg/injection, schedule: Q04DX003 (ip), vehicle: saline.
Setting [13] is: dose: 400.0 mg/kg/injection, schedule: Q04DX003 (ip), vehicle: saline with Tween-80.
Setting [14] is: dose: 100.0 mg/kg/injection, schedule: Q04DX003 (ip), vehicle: Klucel (hydroxypropylcellulose) (HPC).
Setting [15] is: dose: 400.0 mg/kg/injection, schedule: Q04DX003 (ip), vehicle: Klucel (hydroxypropylcellulose) (HPC).

SMILES strings stand for the structures. Several values for one entry are separate records, joined by “and”; a condition that tells them apart may be missing. Equal values may be shown once. Toxic doses and inconclusive results are not listed.

In the case of `CCCOC(=O)C1OC12CCCCC2` (stereo not given), the T/C by setting is: under setting [1], 103 % of control; under setting [2], 100 % of control; under setting [3], 103 % of control.
In the case of `CCC(CC)OC(=O)Nc1cccc(OC(=O)NC)c1`, the T/C by setting is: under setting [4], 104 % of control; under setting [5], 95 % of control.
With `Cc1ccc(S(=O)(=O)OCC(O)C2OCOC3COCOC32)cc1` (stereo not given), the T/C runs as follows: under setting [6], 97 % of control; (dose: 200.0 mg/kg/injection, schedule: Q01DX001 (ip), vehicle: Klucel (hydroxypropylcellulose) (HPC)) 101 % of control.
As for `CCOC(=O)N1Cc2cc3ccccc3nc2C1C1OC(CC)(C(=O)OCC)C1=O` (stereo not given), the T/C is 96 % of control (dose: 10.0 mg/kg/injection, schedule: Q07DX002 (ip), vehicle: alcohol); 105 % of control (dose: 20.0 mg/kg/injection, schedule: Q07DX002 (ip), vehicle: alcohol); 89 % of control (dose: 40.0 mg/kg/injection, schedule: Q07DX002 (ip), vehicle: alcohol); 105 % of control (dose: 80.0 mg/kg/injection, schedule: Q07DX002 (ip), vehicle: alcohol).
For `COC1=C(Br)C(=O)C(Br)=C(OC)C1=O`, the T/C is, setting by setting: (dose: 100.0 mg/kg/injection, schedule: Q04DX002 (ip), vehicle: other) 107 % of control; (dose: 200.0 mg/kg/injection, schedule: Q04DX002 (ip), vehicle: other) 96 % of control.
As for `CCCOc1ccc(=S)[nH]n1`, the T/C was 103 % of control under setting [7]; 101 % of control under setting [8]; 95 % of control under setting [9]; 106 % of control under setting [10]; 98 % of control under setting [11]; 95 % of control under setting [12].
With `CC1(C)N=C(N)N=C(N)N1c1cccc(OCCOc2cccc(N)c2)c1`, the T/C (dose: 5.0 mg/kg/injection, schedule: Q01DX001 (ip), vehicle: saline) was 91 % of control; the T/C (dose: 10.0 mg/kg/injection, schedule: Q01DX001 (ip), vehicle: saline) is 92 % of control; the T/C (dose: 20.0 mg/kg/injection, schedule: Q01DX001 (ip), vehicle: saline) was 94 % of control; the T/C (dose: 40.0 mg/kg/injection, schedule: Q01DX001 (ip), vehicle: saline) is 89 % of control; the T/C under setting [6] was 106 % of control.
Turning to `O=C(OC/C=C/c1ccccc1)c1ccccc1`, the T/C was 97 % of control (dose: 50.0 mg/kg/injection, schedule: Q01DX009 (ip), vehicle: saline with Tween-80); 91 % of control under setting [1]; 91 % of control under setting [2].
In the case of `COc1cc(Cn2cccc2/C=N/NC(N)=S)cc(OC)c1`, the T/C reads like this: (dose: 25.0 mg/kg/injection, schedule: Q04DX002 (ip), vehicle: Klucel (hydroxypropylcellulose) (HPC)) 105 % of control; (dose: 50.0 mg/kg/injection, schedule: Q04DX002 (ip), vehicle: Klucel (hydroxypropylcellulose) (HPC)) 111 % of control; (dose: 100.0 mg/kg/injection, schedule: Q04DX002 (ip), vehicle: Klucel (hydroxypropylcellulose) (HPC)) 111 % of control.
On to `O=C(C[n+]1ccccc1)CC(O)(C(F)(F)F)C(F)(F)F`, for which the T/C by setting is: under setting [4], 104 % of control; under setting [5], 103 % of control; under setting [13], 98 % of control.
As to `N#CCC(=O)N1CCCC1`, the T/C runs as follows: (dose: 50.0 mg/kg/injection, schedule: Q01DX001 (ip), vehicle: saline) 95 % of control; under setting [7], 104 % of control; under setting [9], 98 % of control; under setting [11], 95 % of control.
For `O=C(O)c1c(F)cccc1F`, the T/C is 91 % of control (dose: 25.0 mg/kg/injection, schedule: Q04DX003 (ip), vehicle: saline with Tween-80); 91 % of control (dose: 50.0 mg/kg/injection, schedule: Q04DX003 (ip), vehicle: saline with Tween-80); 95 % of control under setting [14]; 88 % of control under setting [4]; 88 % of control under setting [15].
Regarding `CN(C)CC(Cl)CCl` (stereo not given), the T/C reads like this: under setting [8], 98 % of control; under setting [10], 107 % of control; under setting [12], 115 % of control.
In the case of `O=C(CCl)NCCCC1CCCCC1`, the T/C was 100 % of control (dose: 12.5 mg/kg/injection, schedule: Q04DX002 (ip), vehicle: saline); 96 % of control (dose: 25.0 mg/kg/injection, schedule: Q04DX002 (ip), vehicle: saline); 104 % of control (dose: 50.0 mg/kg/injection, schedule: Q04DX002 (ip), vehicle: saline).
Turning to `O=C1C=CC(=O)C2C3c4ccccc4C(c4ccccc43)C12` (stereo not given), the T/C runs as follows: (dose: 100.0 mg/kg/injection, schedule: Q01DX001 (ip), vehicle: saline with Tween-80) 93 % of control; (dose: 100.0 mg/kg/injection, schedule: Q04DX002 (ip), vehicle: saline) 93 % of control; (dose: 200.0 mg/kg/injection, schedule: Q01DX001 (ip), vehicle: saline with Tween-80) 108 % of control; (dose: 200.0 mg/kg/injection, schedule: Q04DX002 (ip), vehicle: saline) 101 % of control; (dose: 400.0 mg/kg/injection, schedule: Q01DX001 (ip), vehicle: saline with Tween-80) 100 % of control; (dose: 400.0 mg/kg/injection, schedule: Q04DX002 (ip), vehicle: saline) 90 % of control.
Take `CC(=O)Nc1cc(Cl)ccc1C(=O)O`: the T/C by setting is: (dose: 100.0 mg/kg/injection, schedule: Q01DX001 (ip), vehicle: other) 109 % of control; (dose: 100.0 mg/kg/injection, schedule: Q04DX003 (ip), vehicle: other) 96 % of control; (dose: 200.0 mg/kg/injection, schedule: Q01DX001 (ip), vehicle: other) 98 % of control; (dose: 200.0 mg/kg/injection, schedule: Q04DX003 (ip), vehicle: other) 90 % of control; (dose: 400.0 mg/kg/injection, schedule: Q01DX001 (ip), vehicle: other) 101 % of control; (dose: 400.0 mg/kg/injection, schedule: Q04DX003 (ip), vehicle: other) 96 % of control.
As to `COc1ccccc1NC(=O)Nc1ccc(N(C)C)cc1`, the T/C is 91 % of control under setting [1]; 86 % of control under setting [4]; 96 % of control under setting [2]; 94 % of control under setting [5]; 102 % of control under setting [3]; 95 % of control under setting [13].
Turning to `O=C(Nc1ccc([N+](=O)[O-])cc1Cl)Oc1cccc2ccccc12`, the T/C runs as follows: (dose: 100.0 mg/kg/injection, schedule: Q01DX009 (ip), vehicle: Klucel (hydroxypropylcellulose) (HPC)) 96 % of control; under setting [14], 105 % of control; (dose: 200.0 mg/kg/injection, schedule: Q01DX009 (ip), vehicle: Klucel (hydroxypropylcellulose) (HPC)) 96 % of control; (dose: 200.0 mg/kg/injection, schedule: Q04DX003 (ip), vehicle: Klucel (hydroxypropylcellulose) (HPC)) 105 % of control; (dose: 400.0 mg/kg/injection, schedule: Q01DX009 (ip), vehicle: Klucel (hydroxypropylcellulose) (HPC)) 102 % of control; under setting [15], 105 % of control.
Turning to `O=P(N1CCCC1)(N1CC1)N1CC1`, the T/C is 94 % of control (dose: 1.3 mg/kg/injection, schedule: Q01DX Z (ip), vehicle: carboxymethylcellulose (CMC)); 109 % of control (dose: 2.0 mg/kg/injection, schedule: Q01DX Z (ip), vehicle: carboxymethylcellulose (CMC)); 114 % of control and 120 % of control (dose: 2.0 mg/kg/injection, schedule: Q01DX Z (ip), vehicle: saline); 109 % of control (dose: 3.0 mg/kg/injection, schedule: Q01DX Z (ip), vehicle: carboxymethylcellulose (CMC)); 160 % of control (dose: 4.5 mg/kg/injection, schedule: Q01DX Z (ip), vehicle: carboxymethylcellulose (CMC)); 118 % of control (dose: 7.5 mg/kg/injection, schedule: Q01DX Z (ip), vehicle: saline).
With `Nc1ccn(C2OC(CO)C(O)C2OP(=O)(O)OCC2OC(n3ccc(=O)[nH]c3=O)CC2O)c(=O)n1` (stereo not given), the T/C is 153 % of control (dose: 50.0 mg/kg/injection, schedule: Q01DX009 (ip), vehicle: saline) and 166 % of control (dose: 100.0 mg/kg/injection, schedule: Q01DX009 (ip), vehicle: saline).
